ChEMBL document CHEMBL1130678, “Thio-sugars. IV: Design and synthesis of S-linked fucoside analogs as a new class of alpha-L-fucosidase inhibitors” (Bioorg Med Chem Lett, 1998)

Biological target: T1, Tissue alpha-L-fucosidase (Homo sapiens, UniProt P04066)
T1 sequence (P04066 whole entry): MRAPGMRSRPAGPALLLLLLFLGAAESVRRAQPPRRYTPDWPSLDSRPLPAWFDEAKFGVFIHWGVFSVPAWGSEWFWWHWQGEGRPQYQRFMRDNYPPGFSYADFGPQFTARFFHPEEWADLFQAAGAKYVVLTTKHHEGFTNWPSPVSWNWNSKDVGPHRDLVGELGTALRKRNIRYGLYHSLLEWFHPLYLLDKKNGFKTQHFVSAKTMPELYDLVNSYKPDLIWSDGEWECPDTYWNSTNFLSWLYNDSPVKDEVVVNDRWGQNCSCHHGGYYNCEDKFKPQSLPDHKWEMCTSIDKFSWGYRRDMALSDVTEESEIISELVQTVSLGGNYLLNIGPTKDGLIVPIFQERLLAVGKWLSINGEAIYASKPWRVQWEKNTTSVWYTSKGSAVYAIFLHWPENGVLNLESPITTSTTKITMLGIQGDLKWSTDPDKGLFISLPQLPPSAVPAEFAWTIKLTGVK
Assay: Inhibitory activity against alpha-L-fucosidase in human placenta at PH of 6.5; Mixed Inhibition type

Compound CC(=O)NCSC1OC(C)C(O)C(O)C1O (stereo unspecified) has a Ki of 3.9 µM.
